Test system: 3-Hydroxy-3-Methylglutaryl Coenzyme A Reductase (HMGR)
Assay: 3-Hydroxy-3-Methylglutaryl Coenzyme A Reductase (HMGR) Suppression Assay
Format: cell-based, Chinese Hamster (CHO cells)
Settings: CHO cells; for IC50: 6 hr. at 37°, read-out: IC50 (amount of compound required to suppress HMGR activity by 50% relative to controls); for effect on measured HMGR activity: tested under these same conditions

| IC50 [µM] | SMILES | effect on measured HMGR activity |
| --- | --- | --- |
| 2.5 | CC(C)CCC[C@@H](C)[C@H]1CO[C@@]2(CO)C3=C(CC[C@]12C)[C@@]1(C)CC[C@H](O)C(C)(C)[C@@H]1CC3 [Example 8, 15-Oxa-lanost-8-ene-3b,32-diol] |  |
| 0.06 | CC(C)CCC[C@@H](C)[C@H]1CS[C@@]2(C)C3=C(CC[C@]12C)[C@@]1(C)CC[C@H](O)C(C)(C)[C@@H]1CC3 [Example 857] |  |
| 2.08 | CC(C)CCC[C@@H](C)[C@H]1CO[C@@]2(CO)C3=C(CC[C@]12C)[C@@]1(C)CC[C@H](O)C[C@@H]1CC3 [Example 19] |  |
| 2.5 | CC(C)CCC[C@@H](C)[C@H]1CCO[C@@]2(C=O)C3=C(CC[C@]12C)[C@@]1(C)CC[C@H](O)C(C)(C)[C@@H]1CC3 [Example 677, 14a-Oxa-32-oxo-D-homo-dihydrolanosterol] |  |
| 1.25 | CC(C)CCC[C@@H](C)[C@H]1CCS[C@@]2(C)C3=C(CC[C@]12C)[C@@]1(C)CC[C@H](O)C(C)(C)[C@@H]1CC3 [Example 1508] |  |
| 0.08 | CC(C)CCC[C@@H](C)[C@H]1CO[C@@]2(C=O)C3=C(CC[C@]12C)[C@@]1(C)CCC(=O)C(C)(C)[C@@H]1CC3 [Example 386] |  |
| 1.46 | CC(C)CCC[C@@H](C)[C@H]1CCO[C@H]2C3=C(CC[C@]12C)[C@@]1(C)CC[C@H](O)C(C)(C)[C@@H]1CC3 [Example 673, 4,4-dimethyl-14a-Oxa-D-homo-5a-cholest-8-en-3b-ol] |  |
| 1.95 | CC(C)CCC[C@@H](C)[C@H]1CO[C@@]2([C@@H](O)CO)C3=C(CC[C@]12C)[C@@]1(C)CC[C@H](O)C[C@@H]1CC3 [Example 17] |  |
| 5 | CC(C)CCC[C@@H](C)[C@H]1CCS[C@H]2C3=C(CC[C@]12C)[C@@]1(C)CC[C@H](O)C(C)(C)[C@@H]1CC3 [Example 1509, 4,4-Dimethyl-15-thia-D-homo-5a-cholest-8-en-3b-ol] |  |
|  | CC(C)=CCC[C@@H](C)[C@H]1CC[C@@]2(C)C3=C(CC[C@]12C)[C@@]1(C)CC[C@H](O)C(C)(C)[C@@H]1CC3 [lanosta-8,24-diene-3b-ol, reference compound] | without effect |
| 0.17 | C=C[C@@]12OC[C@H]([C@H](C)CCCC(C)C)[C@@]1(C)CCC1=C2CC[C@H]2C(C)(C)[C@@H](O)CC[C@]12C [Example 3, 4,4-Dimethyl-15-oxa-14a-vinyl-5a-cholest-8-en-3b-ol] |  |
| 0.2 | CC(C)CCC[C@@H](C)[C@H]1CO[C@@]2(C=NO)C3=C(CC[C@]12C)[C@@]1(C)CC[C@H](O)C(C)(C)[C@@H]1CC3 [Example 10, 3b-Hydroxy-15-oxa-lanost-8-en-32-aldoxime] |  |
| 0.3 | CC(C)CCC[C@@H](C)[C@H]1CO[C@H]2C3=C(CC[C@]12C)[C@@]1(C)CC[C@H](O)C(C)(C)[C@@H]1CC3 [Example 2, 4,4-Dimethyl-15-oxa-5a-cholest-8-en-3b-ol] |  |
| 0.04 | CC(C)CCC[C@@H](C)[C@H]1CO[C@@]2(C=O)C3=C(CC[C@]12C)[C@@]1(C)CC[C@H](O)C(C)(C)[C@@H]1CC3 [Example 7, 15-Oxa 32-oxodihydrolanosterol] |  |
| 0.06 | C=C[C@@]12SC[C@H]([C@H](C)CCCC(C)C)[C@@]1(C)CCC1=C2CC[C@H]2C(C)(C)[C@@H](O)CC[C@]12C [Example 859, 4,4-Dimethyl-15-thia-14a-vinyl-5a-cholest-8-en-3b-ol] |  |
| 2.5 | CC(C)CCC[C@@H](C)[C@H]1CO[C@@]2(C)C3=C(CC[C@]12C)[C@@]1(C)CC[C@H](O)C[C@@H]1CC3 [Example 13, 14a-Methyl-15-oxa-5a-cholest-8-en-3b-ol] |  |
|  | CC(C)CCC[C@@H](C)[C@H]1CC[C@@]2(C)C3=C(CC[C@]12C)[C@@]1(C)CC[C@H](O)C(C)(C)[C@@H]1CC3 [lanost-8-en-3b-ol, reference compound] | without effect |
| 2.5 | CC(C)CCC[C@@H](C)[C@H]1CO[C@@]2([C@H](O)CO)C3=C(CC[C@]12C)[C@@]1(C)CC[C@H](O)C[C@@H]1CC3 [Example 16] |  |
| 0.3 | CC(C)CCC[C@@H](C)[C@H]1C[S+]([O-])[C@@]2(C)C3=C(CC[C@]12C)[C@@]1(C)CC[C@H](O)C(C)(C)[C@@H]1CC3 (some centres unmarked) [Example 1303] |  |
|  | CC(C)CCC[C@@H](C)[C@H]1CC[C@H]2[C@@H]3CC=C4C[C@@H](O)CC[C@]4(C)[C@H]3CC[C@]12C [cholesterol, reference compound] | without effect |
| 0.55 | CC(C)CCC[C@@H](C)[C@H]1CS[C@H]2C3=C(CC[C@]12C)[C@@]1(C)CC[C@H](O)C(C)(C)[C@@H]1CC3 [Example 858, 4,4-Dimethyl-15-thia-5a-cholest-8-en-3b-ol] |  |
| 0.3 | CC(C)CCC[C@@H](C)[C@H]1CO[C@@]2(C=O)C3=C(CC[C@]12C)[C@@]1(C)CC[C@H](O)C[C@@H]1CC3 [Example 18] |  |

| SMILES | IC50 [µM] | effect on measured HMGR activity |
| --- | --- | --- |
| CC(=O)O[C@H]1CC[C@]2(C)C3=C(CC[C@H]2C1(C)C)[C@]1(C=O)OC[C@H]([C@H](C)CCCC(C)C)[C@@]1(C)CC3 [Example 6, 3b-Acetoxy-15-oxa-32-oxolanost-8-ene] | 0.075 |  |

From US5219879A, “Heterocyclic steroid compounds” (Du Pont Merck Pharmaceutical Company, priority 1991, dated 1993)
